Measurements from ChEMBL document CHEMBL6083183, “Discovery and Hit to Lead Optimization of Macrocyclic Peptides as Novel Tropomyosin Receptor Kinase A Antagonists” (J Med Chem, 2024).
The source made the active and inactive calls. The calls are words filed in the database; no cut-off is given here. Bridge positions count the residues as written; N and C are the ends. Square brackets hold non-standard residues; d marks the D form. Peptide text beside a SMILES is read from it. NMeY = CN[C@@H](Cc1ccc(O)cc1)C(=O)O; NMeF = CN[C@@H](Cc1ccccc1)C(=O)O; NMeN = CN[C@@H](CC(N)=O)C(=O)O; NMeL = CN[C@@H](CC(C)C)C(=O)O; NMeS = CN[C@@H](CO)C(=O)O; Sar = CNCC(=O)O

Tests used:
Rattus norvegicus = test: Analgesic activity in iv dosed rat Brennan's incision pain model assessed as reduction in pain measured after 15 mins; assay type: functional, organism-based; conditions: dose 0.5-1 mg/kg
[1] = biological target: T1, High affinity nerve growth factor receptor (Homo sapiens, UniProt P04629); test: Binding affinity to Fc-tagged human TrkA extracellular domain by SPR method
T1 sequence (P04629 whole entry, the tested form may be a part): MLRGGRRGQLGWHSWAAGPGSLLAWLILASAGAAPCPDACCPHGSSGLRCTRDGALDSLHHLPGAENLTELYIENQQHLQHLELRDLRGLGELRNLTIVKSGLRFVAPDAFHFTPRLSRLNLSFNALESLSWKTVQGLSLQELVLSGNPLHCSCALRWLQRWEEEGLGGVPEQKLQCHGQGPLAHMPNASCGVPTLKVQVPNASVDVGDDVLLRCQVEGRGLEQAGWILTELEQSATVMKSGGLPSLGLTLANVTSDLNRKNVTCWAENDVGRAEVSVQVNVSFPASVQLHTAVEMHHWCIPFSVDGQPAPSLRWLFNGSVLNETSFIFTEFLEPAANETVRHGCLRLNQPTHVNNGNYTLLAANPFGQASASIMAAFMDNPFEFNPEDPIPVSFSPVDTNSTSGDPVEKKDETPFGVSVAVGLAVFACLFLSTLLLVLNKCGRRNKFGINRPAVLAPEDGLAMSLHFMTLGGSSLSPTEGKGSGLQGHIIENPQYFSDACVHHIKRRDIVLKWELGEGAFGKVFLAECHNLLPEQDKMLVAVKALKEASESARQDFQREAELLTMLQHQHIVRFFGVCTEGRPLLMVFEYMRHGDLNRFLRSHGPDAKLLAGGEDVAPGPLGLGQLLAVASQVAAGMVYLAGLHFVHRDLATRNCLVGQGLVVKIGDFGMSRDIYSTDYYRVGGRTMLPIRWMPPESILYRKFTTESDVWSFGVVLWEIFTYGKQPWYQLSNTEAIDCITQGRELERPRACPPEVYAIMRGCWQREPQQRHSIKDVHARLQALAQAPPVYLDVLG

Homo sapiens = species on record: Homo sapiens; test: Inhibition of Fc-tagged human TrkA extracellular domain to biotinylated human NGF protein-protein interaction preincubated for 1 hr followed by NGF addition and measured after 3 hrs by ELISA; conditions: time 4.0 hrs
[2] = Stability in rat serum assessed as half-life incubated for 22 to 24 hrs by LC-MS/MS method; assay type: ADME, cell-free; conditions: time 22-24 hrs
[3] = Stability in human serum assessed as half-life incubated for 22 to 24 hrs by LC-MS/MS method; assay type: ADME, cell-free; conditions: time 22-24 hrs
[4] = biological target: T1, High affinity nerve growth factor receptor; test: Inhibition of human TrkA assessed as beta-galactosidase activity pretreated with NGF followed by […] and measured after 180 mins by pathhunter assay
[5] = Total clearance in Sprague-Dawley rat at 1 umol/kg, iv administered as cassette dose measured upto 6 hrs by LC-MS/MS method; assay type: ADME, organism-based; conditions: in vivo, dose 1 µmol/kg
[6] = AUC in Sprague-Dawley rat at 1 umol/kg, iv administered as cassette dose measured upto 6 hrs by LC-MS/MS method; assay type: ADME, organism-based; conditions: in vivo, dose 1 µmol/kg

CN1CC[C@]23c4c5ccc(O)c4O[C@H]2[C@@H](O)C=C[C@H]3[C@H]1C5
Activity (Rattus norvegicus): Dose-dependent-effect

CC[C@H](C)[C@@H]1NC(=O)CNC(=O)[C@H](Cc2ccc(O)cc2)NC(=O)[C@H](Cc2ccccc2)NC(=O)CNC(=O)[C@H](Cc2c[nH]cn2)NC(=O)[C@@H]2CCCN2C(=O)[C@H](Cc2ccc(O)cc2)NC(=O)[C@H](CC(C)C)NC(=O)[C@H](Cc2ccccc2)NC(=O)[C@H](Cc2ccccc2)NC(=O)CSC[C@@H](C(=O)NCC(N)=O)NC(=O)[C@H](C(C)C)NC1=O ({CH2CO}-FFLYPHGFYGIVCG-NH2; thioether N-13)
Kd [1]: 8.5 nM | inhibition (Homo sapiens): inactive

CC(C)C[C@@H]1NC(=O)[C@H](CCCNC(=N)N)NC(=O)CNC(=O)[C@H](Cc2ccccc2)N(C)C(=O)CNC(=O)[C@H](Cc2c[nH]c3ccccc23)NC(=O)[C@H](Cc2ccc(O)cc2)NC(=O)[C@H](CCC(=O)O)NC(=O)[C@H](C(C)C)NC(=O)[C@H](CO)NC(=O)[C@H](CCCCN)NC(=O)[C@H](Cc2ccccc2)NC(=O)CSC[C@@H](C(=O)N(C)CC(N)=O)NC(=O)[C@H](Cc2c[nH]cn2)NC(=O)[C@H](CC(=O)O)NC(=O)[C@H](Cc2ccc(O)cc2)NC(=O)[C@H](Cc2ccc(O)cc2)NC(=O)[C@H](CCCCN)NC1=O ({CH2CO}-FKSVEYWG[NMeF]GRLKYYDHC[Sar]-NH2; thioether N-18)
half-life [2]: 32 h | half-life [3]: 2.5 h | IC50 [4]: 35 nM

CC(C)C[C@@H]1NC(=O)[C@H](CCCNC(=N)N)NC(=O)CNC(=O)[C@H](Cc2ccccc2)N(C)C(=O)CNC(=O)[C@H](Cc2c[nH]c3ccccc23)NC(=O)[C@H](Cc2ccc(O)cc2)NC(=O)[C@H](CO)NC(=O)[C@H](C(C)C)NC(=O)[C@H](CO)NC(=O)[C@H](CCCCN)NC(=O)[C@H](Cc2ccccc2)NC(=O)CSC[C@@H](C(=O)N(C)CC(N)=O)NC(=O)[C@H](Cc2c[nH]cn2)NC(=O)[C@H](CC(N)=O)NC(=O)[C@H](Cc2ccc(O)cc2)NC(=O)[C@H](Cc2ccc(O)cc2)NC(=O)[C@H](CCCCN)NC1=O ({CH2CO}-FKSVSYWG[NMeF]GRLKYYNHC[Sar]-NH2; thioether N-18)
half-life [2]: 4.5 h | half-life [3]: 2.9 h | IC50 [4]: 22 nM

CC(C)C[C@@H]1NC(=O)[C@H](CC(N)=O)NC(=O)CNC(=O)[C@H](Cc2ccccc2)N(C)C(=O)CNC(=O)[C@H](Cc2c[nH]c3ccccc23)NC(=O)[C@H](Cc2ccc(O)cc2)NC(=O)[C@H](C)NC(=O)[C@H](C(C)C)NC(=O)[C@H](CO)NC(=O)[C@H](CO)NC(=O)[C@H](Cc2ccccc2)NC(=O)CSC[C@@H](C(=O)NCC(N)=O)NC(=O)[C@H](Cc2c[nH]cn2)NC(=O)[C@H](CC(N)=O)NC(=O)[C@H](Cc2ccc(O)cc2)NC(=O)[C@H](Cc2ccc(O)cc2)NC(=O)[C@H](C(C)C)NC1=O ({CH2CO}-FSSVAYWG[NMeF]GNLVYYNHCG-NH2; thioether N-18)
IC50 [4]: 26 nM

CC[C@H](C)[C@@H]1NC(=O)CNC(=O)[C@H](Cc2ccccc2)N(C)C(=O)CNC(=O)[C@H](Cc2c[nH]c3ccccc23)NC(=O)[C@H](Cc2ccc(O)cc2)NC(=O)[C@H](CCC(=O)O)NC(=O)[C@H](C(C)C)NC(=O)[C@H](CO)NC(=O)[C@H](CO)NC(=O)[C@H](Cc2ccccc2)NC(=O)CSC[C@@H](C(=O)NCC(N)=O)NC(=O)[C@H](Cc2cnc[nH]2)NC(=O)[C@H](CC(=O)O)NC(=O)[C@H](Cc2ccc(O)cc2)NC(=O)[C@H](Cc2c[nH]c3ccccc23)NC(=O)[C@H](CCC(=O)O)NC(=O)[C@H](CC(C)C)NC1=O ({CH2CO}-FSSVEYWG[NMeF]GILEWYDHCG-NH2; thioether N-18)
clearance [5]: 21.3 mL/min/kg | half-life [2]: > 72 h | half-life [3]: > 72 h | AUC at 6 h [6]: 0.786 µM·h | IC50 [4]: 34 nM

CC(C)C[C@@H]1NC(=O)[C@H](CC(N)=O)NC(=O)CNC(=O)[C@H](Cc2ccccc2)N(C)C(=O)CNC(=O)[C@H](Cc2c[nH]c3ccccc23)NC(=O)[C@H](Cc2ccc(O)cc2)NC(=O)[C@H](CO)NC(=O)[C@H](C(C)C)NC(=O)[C@H](CO)NC(=O)[C@H](CO)NC(=O)[C@H](Cc2ccccc2)NC(=O)CSC[C@@H](C(=O)NCC(N)=O)NC(=O)[C@H](Cc2c[nH]cn2)NC(=O)[C@H](CC(N)=O)NC(=O)[C@H](Cc2ccc(O)cc2)NC(=O)[C@H](Cc2c[nH]c3ccccc23)NC(=O)[C@H](C(C)C)NC1=O ({CH2CO}-FSSVSYWG[NMeF]GNLVWYNHCG-NH2; thioether N-18)
IC50 [4]: 41 nM

CC(C)C[C@@H]1NC(=O)[C@H](CC(N)=O)NC(=O)CNC(=O)[C@H](Cc2ccccc2)N(C)C(=O)CNC(=O)[C@H](Cc2c[nH]c3ccccc23)NC(=O)[C@H](Cc2ccc(O)cc2)NC(=O)[C@H](CO)NC(=O)[C@H](C(C)C)NC(=O)[C@H](CO)NC(=O)[C@H](CO)NC(=O)[C@H](Cc2ccccc2)NC(=O)CSC[C@@H](C(=O)N(C)CC(N)=O)NC(=O)[C@H](Cc2c[nH]cn2)NC(=O)[C@H](CC(N)=O)NC(=O)[C@H](Cc2ccc(O)cc2)NC(=O)[C@H](Cc2c[nH]c3ccccc23)NC(=O)[C@H](C(C)C)NC1=O ({CH2CO}-FSSVSYWG[NMeF]GNLVWYNHC[Sar]-NH2; thioether N-18)
IC50 [4]: 15 nM

CC(C)C[C@@H]1NC(=O)[C@H](CC(N)=O)NC(=O)CNC(=O)[C@H](Cc2ccccc2)N(C)C(=O)CNC(=O)[C@H](Cc2c[nH]c3ccccc23)NC(=O)[C@H](Cc2ccc(O)cc2)NC(=O)[C@H](CO)NC(=O)[C@H](C(C)C)NC(=O)[C@H](CO)NC(=O)[C@H](CO)NC(=O)[C@H](Cc2ccccc2)NC(=O)CSC[C@@H](C(=O)NCC(N)=O)NC(=O)[C@H](Cc2c[nH]cn2)NC(=O)[C@H](CC(N)=O)N(C)C(=O)[C@H](Cc2ccc(O)cc2)NC(=O)[C@H](Cc2c[nH]c3ccccc23)NC(=O)[C@H](C(C)C)NC1=O ({CH2CO}-FSSVSYWG[NMeF]GNLVWY[NMeN]HCG-NH2; thioether N-18)
IC50 [4]: 48 nM

CC(C)C[C@@H]1NC(=O)[C@H](CC(N)=O)NC(=O)CNC(=O)[C@H](Cc2ccccc2)N(C)C(=O)CNC(=O)[C@H](Cc2c[nH]c3ccccc23)NC(=O)[C@H](Cc2ccc(O)cc2)NC(=O)[C@H](CO)NC(=O)[C@H](C(C)C)NC(=O)[C@H](CO)NC(=O)[C@H](CO)NC(=O)[C@H](Cc2ccccc2)NC(=O)CSC[C@@H](C(=O)NCC(N)=O)NC(=O)[C@H](Cc2cnc[nH]2)NC(=O)[C@H](CC(=O)O)NC(=O)[C@H](Cc2ccc(O)cc2)NC(=O)[C@H](Cc2ccc(O)cc2)NC(=O)[C@H](C(C)C)NC1=O ({CH2CO}-FSSVSYWG[NMeF]GNLVYYDHCG-NH2; thioether N-18)
IC50 [4]: 24 nM

CC(C)C[C@@H]1NC(=O)[C@H](CC(N)=O)NC(=O)CNC(=O)[C@H](Cc2ccccc2)N(C)C(=O)CNC(=O)[C@H](Cc2c[nH]c3ccccc23)NC(=O)[C@H](Cc2ccc(O)cc2)NC(=O)[C@H](CO)NC(=O)[C@H](C(C)C)NC(=O)[C@H](CO)NC(=O)[C@H](CO)NC(=O)[C@H](Cc2ccccc2)NC(=O)CSC[C@@H](C(=O)NCC(N)=O)NC(=O)[C@H](Cc2c[nH]cn2)NC(=O)[C@H](CC(N)=O)NC(=O)[C@H](Cc2ccc(O)cc2)NC(=O)[C@H](Cc2ccc(O)cc2)NC(=O)[C@H](C(C)C)NC1=O ({CH2CO}-FSSVSYWG[NMeF]GNLVYYNHCG-NH2; thioether N-18)
IC50 [4]: 6 nM

CC(C)C[C@@H]1NC(=O)[C@H](CC(N)=O)NC(=O)CNC(=O)[C@H](Cc2ccccc2)N(C)C(=O)CNC(=O)[C@H](Cc2c[nH]c3ccccc23)NC(=O)[C@H](Cc2ccc(O)cc2)NC(=O)[C@H](CO)NC(=O)[C@H](C(C)C)NC(=O)[C@H](CO)NC(=O)[C@H](CO)NC(=O)[C@H](Cc2ccccc2)NC(=O)CSC[C@@H](C(=O)NCC(N)=O)NC(=O)[C@H](Cc2c[nH]cn2)NC(=O)[C@H](CO)NC(=O)[C@H](Cc2ccc(O)cc2)NC(=O)[C@H](Cc2ccc(O)cc2)NC(=O)[C@H](C(C)C)NC1=O ({CH2CO}-FSSVSYWG[NMeF]GNLVYYSHCG-NH2; thioether N-18)
IC50 [4]: 186 nM

CC(C)C[C@H]1C(=O)N[C@@H](C(C)C)C(=O)N[C@@H](Cc2c[nH]c3ccccc23)C(=O)N[C@@H](Cc2ccc(O)cc2)C(=O)N[C@@H](CC(N)=O)C(=O)N[C@@H](Cc2c[nH]cn2)C(=O)N[C@H](C(=O)NCC(N)=O)CSCC(=O)N[C@@H](Cc2ccccc2)C(=O)N[C@@H](CO)C(=O)N[C@@H](CO)C(=O)N[C@@H](C(C)C)C(=O)N[C@@H](CO)C(=O)N[C@@H](Cc2ccc(O)cc2)C(=O)N[C@@H](Cc2c[nH]c3ccccc23)C(=O)NCC(=O)N(C)[C@@H](Cc2ccccc2)C(=O)NCC(=O)N[C@@H](CC(N)=O)C(=O)N1C ({CH2CO}-FSSVSYWG[NMeF]GN[NMeL]VWYNHCG-NH2; thioether N-18)
IC50 [4]: 81 nM

CC(C)C[C@@H]1NC(=O)[C@H](CC(N)=O)NC(=O)CNC(=O)[C@H](Cc2ccccc2)N(C)C(=O)CNC(=O)[C@H](Cc2c[nH]c3ccccc23)NC(=O)[C@H](Cc2ccc(O)cc2)N(C)C(=O)[C@H](CO)NC(=O)[C@H](C(C)C)NC(=O)[C@H](CO)NC(=O)[C@H](CO)NC(=O)[C@H](Cc2ccccc2)NC(=O)CSC[C@@H](C(=O)NCC(N)=O)NC(=O)[C@H](Cc2c[nH]cn2)NC(=O)[C@H](CC(N)=O)NC(=O)[C@H](Cc2ccc(O)cc2)NC(=O)[C@H](Cc2c[nH]c3ccccc23)NC(=O)[C@H](C(C)C)NC1=O ({CH2CO}-FSSVS[NMeY]WG[NMeF]GNLVWYNHCG-NH2; thioether N-18)
IC50 [4]: 22 nM

CC(C)C[C@@H]1NC(=O)[C@H](CC(N)=O)NC(=O)CNC(=O)[C@H](Cc2ccccc2)N(C)C(=O)CNC(=O)[C@H](Cc2c[nH]c3ccccc23)NC(=O)[C@H](Cc2ccc(O)cc2)NC(=O)[C@H](CO)NC(=O)[C@H](C(C)C)NC(=O)[C@H](CO)NC(=O)[C@H](CO)N(C)C(=O)[C@H](Cc2ccccc2)NC(=O)CSC[C@@H](C(=O)NCC(N)=O)NC(=O)[C@H](Cc2c[nH]cn2)NC(=O)[C@H](CC(N)=O)NC(=O)[C@H](Cc2ccc(O)cc2)NC(=O)[C@H](Cc2c[nH]c3ccccc23)NC(=O)[C@H](C(C)C)NC1=O ({CH2CO}-F[NMeS]SVSYWG[NMeF]GNLVWYNHCG-NH2; thioether N-18)
IC50 [4]: 13 nM
